Source: ChEMBL document CHEMBL5365451, “Discovery of CVN417, a Novel Brain-Penetrant α6-Containing Nicotinic Receptor Antagonist for the Modulation of Motor Dysfunction” (J Med Chem, 2023)
pIC50: −log10 of the molar value.

Assays:
[1] = Antagonist activity at human alpha6-alpha3/beta2/beta3 V273S mutant nAChR expressed in HEK293 cells assessed as nicotine-induced intracellular calcium release incubated for 15 mins by FLIPR analysis; type: cell-based; conditions: HEK293, 0.25 h
[2] = Drug exposure in Sprague-Dawley rat brain at 3 mg/kg, po measured for 2 hrs by LC-MS/MS analysis; type: ADME, organism-based; conditions: read-out: Drug uptake
[3] = Metabolic stability in rat liver microsome assessed as clearance preincubated for 60 mins followed by NADPH addition and measured after 60 mins by LC-MS/MS analysis; type: ADME; conditions: liver microsomes, time 120 min, read-out: CLH
[4] = Intrinsic clearance in Sprague-Dawley rat at 0.5 mg/kg, iv by LC-MS/MS analysis; type: ADME, organism-based; conditions: in vivo
[5] = Metabolic stability in human liver microsome assessed as clearance preincubated for 60 mins followed by NADPH addition and measured after 60 mins by LC-MS/MS analysis; type: ADME; conditions: liver microsomes, time 120 min, read-out: CLH
[6] = Oral bioavailability in Sprague-Dawley rat 3 mg/kg by LC-MS/MS analysis; type: ADME, organism-based; conditions: in vivo
[7] = target: Neuronal acetylcholine receptor; alpha4/beta2 (Homo sapiens, UniProt P17787+P43681); experiment: Antagonist activity at human alpha4/beta2 nAChR expressed in HEK293 cells assessed as nicotine-induced intracellular calcium release incubated for 15 mins by FLIPR analysis; type: cell-based
[8] = target: Neuronal acetylcholine receptor; alpha3/beta4 (Homo sapiens, UniProt P30926+P32297); experiment: Antagonist activity at human alpha3/beta4 nAChR expressed in HEK293 cells assessed as nicotine-induced intracellular calcium release incubated for 15 mins by FLIPR analysis; type: cell-based
[9] = Volume of distribution at steady state in Sprague-Dawley rat at 0.5 mg/kg, iv by LC-MS/MS analysis; type: ADME, organism-based; conditions: in vivo, read-out: Vdss
[10] = Metabolic stability in human liver microsome assessed as clearance at 10 uM incubated upto 2 hrs by LC-MS/MS analysis; type: ADME; conditions: liver microsomes, read-out: CLH
[11] = Metabolic stability in rat liver microsome assessed as clearance at 10 uM incubated upto 2 hrs by LC-MS/MS analysis; type: ADME; conditions: liver microsomes, read-out: CLH

Neuronal acetylcholine receptor; alpha3/beta4, sequence (P30926 whole entry): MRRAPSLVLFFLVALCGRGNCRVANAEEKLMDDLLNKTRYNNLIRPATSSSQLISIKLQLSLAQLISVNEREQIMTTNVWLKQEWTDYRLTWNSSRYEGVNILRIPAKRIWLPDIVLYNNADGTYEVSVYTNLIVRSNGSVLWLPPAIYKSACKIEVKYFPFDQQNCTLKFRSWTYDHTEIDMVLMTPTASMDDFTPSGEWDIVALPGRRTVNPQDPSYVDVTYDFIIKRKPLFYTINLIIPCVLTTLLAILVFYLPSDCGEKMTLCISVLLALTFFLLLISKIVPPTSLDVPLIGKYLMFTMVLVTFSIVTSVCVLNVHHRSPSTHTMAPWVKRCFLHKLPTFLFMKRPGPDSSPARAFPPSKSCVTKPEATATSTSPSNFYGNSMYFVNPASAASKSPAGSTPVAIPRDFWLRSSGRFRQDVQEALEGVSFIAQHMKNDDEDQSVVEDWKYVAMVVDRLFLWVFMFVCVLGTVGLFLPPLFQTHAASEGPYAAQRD
Neuronal acetylcholine receptor; alpha3/beta4, sequence (P32297 whole entry): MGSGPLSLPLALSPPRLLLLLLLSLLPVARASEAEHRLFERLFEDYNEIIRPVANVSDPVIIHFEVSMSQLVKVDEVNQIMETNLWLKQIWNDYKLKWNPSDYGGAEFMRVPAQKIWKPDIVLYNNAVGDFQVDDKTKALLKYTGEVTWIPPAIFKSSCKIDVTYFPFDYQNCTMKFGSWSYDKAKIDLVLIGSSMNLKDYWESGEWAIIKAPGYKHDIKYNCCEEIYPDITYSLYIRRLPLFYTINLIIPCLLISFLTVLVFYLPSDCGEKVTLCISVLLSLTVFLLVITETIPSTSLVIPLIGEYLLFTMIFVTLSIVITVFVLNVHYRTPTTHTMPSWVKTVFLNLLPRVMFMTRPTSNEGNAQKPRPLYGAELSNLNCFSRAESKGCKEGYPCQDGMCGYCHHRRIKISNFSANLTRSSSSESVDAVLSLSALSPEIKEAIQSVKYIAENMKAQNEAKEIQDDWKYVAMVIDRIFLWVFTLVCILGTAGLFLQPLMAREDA
Neuronal acetylcholine receptor; alpha4/beta2, sequence (P17787 whole entry): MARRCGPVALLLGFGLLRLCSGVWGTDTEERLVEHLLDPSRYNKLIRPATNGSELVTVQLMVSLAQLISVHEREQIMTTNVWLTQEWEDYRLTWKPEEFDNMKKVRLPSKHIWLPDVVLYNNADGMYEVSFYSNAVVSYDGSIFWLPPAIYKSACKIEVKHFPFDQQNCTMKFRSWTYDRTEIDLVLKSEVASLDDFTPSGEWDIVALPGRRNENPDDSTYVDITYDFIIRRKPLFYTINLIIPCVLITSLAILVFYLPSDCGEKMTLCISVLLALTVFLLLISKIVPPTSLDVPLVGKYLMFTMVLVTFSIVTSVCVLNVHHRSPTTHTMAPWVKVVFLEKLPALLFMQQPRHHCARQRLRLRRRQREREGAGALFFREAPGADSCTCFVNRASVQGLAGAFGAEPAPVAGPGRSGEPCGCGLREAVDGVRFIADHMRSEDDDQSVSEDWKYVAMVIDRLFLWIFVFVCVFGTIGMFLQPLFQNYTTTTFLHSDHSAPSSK
Neuronal acetylcholine receptor; alpha4/beta2, sequence (P43681 whole entry): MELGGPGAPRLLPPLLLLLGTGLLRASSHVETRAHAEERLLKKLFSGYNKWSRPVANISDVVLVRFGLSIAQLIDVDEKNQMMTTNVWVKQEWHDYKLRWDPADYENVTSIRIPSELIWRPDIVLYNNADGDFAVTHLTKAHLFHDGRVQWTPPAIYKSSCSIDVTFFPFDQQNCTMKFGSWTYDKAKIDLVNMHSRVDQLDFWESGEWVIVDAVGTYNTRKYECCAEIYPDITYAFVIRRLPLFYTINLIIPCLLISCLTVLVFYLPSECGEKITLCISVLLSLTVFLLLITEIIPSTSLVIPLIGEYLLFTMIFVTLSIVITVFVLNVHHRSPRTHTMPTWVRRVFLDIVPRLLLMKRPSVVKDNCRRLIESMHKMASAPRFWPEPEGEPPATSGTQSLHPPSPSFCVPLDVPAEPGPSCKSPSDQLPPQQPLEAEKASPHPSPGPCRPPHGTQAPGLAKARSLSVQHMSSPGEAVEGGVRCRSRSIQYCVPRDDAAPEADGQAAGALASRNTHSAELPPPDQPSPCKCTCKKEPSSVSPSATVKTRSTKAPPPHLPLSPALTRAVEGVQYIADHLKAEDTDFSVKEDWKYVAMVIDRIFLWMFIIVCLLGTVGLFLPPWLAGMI

Row | SMILES | pIC50 [1] | concentration at 2 h [2] [nM] | microsomal CLint [3] [µL/min/mg] | CL [4] [mL/min/kg] | microsomal CLint [5] [µL/min/mg] | bioavailability [6] [%] | pIC50 [7] | pIC50 [8] | Vd [9] [L/kg] | microsomal CLint at 10 µM [10] [µL/min/mg] | microsomal CLint at 10 µM [11] [µL/min/mg]
1 | CN1CCC[C@@H](NC(=O)c2cc(-c3ccc(C(F)(F)F)cc3Cl)n(C)n2)C1 | 7.12 |  |  |  |  |  |  |  |  |  | 
2 | CN1CCC(NC(=O)c2cc(-c3ccc(C(F)(F)F)cc3)nn2C)CC1 | 5.42 |  |  |  |  |  |  |  |  |  | 
3 | CN1CCC(NC(=O)c2cc(-c3ccc(C(F)(F)F)cc3)n(C)n2)C1 (racemic) | 6.88 | 948 | 31.2 | 47 | 28.9 | 18.1 | 5.11 | 5.61 | 18.5 |  | 
4 | COc1ccc(-c2cc(C(=O)N[C@@H]3CN(C)CCC3(F)F)nn2C)c(Cl)c1 | 7.03 |  |  |  |  |  |  |  |  | 61.3 | < 6.4
5 | CN(C)C1(CNC(=O)c2cc(-c3ccc(C(F)(F)F)cc3)n(C)n2)CCCC1 | 6.74 | 30 |  | 81.8 |  | 27.8 | 6.55 | 5.85 | 18.7 |  | 
